Laboratory results reported in paper PMC7343187, “Control of mRNA translation by dynamic ribosome modification” (PLoS Genetics, 2020).
Values belong to the compound of their own block, whether it stands above or below them.

Columns and labels:
RimK [1] = biological target: T1, RimK (Pseudomonas fluorescens, UniProt C3KE61); assay: PK/LDH-coupled ATPase assay (NADH oxidation); type: biochemical; settings: 100 mM Tris-Cl pH 9.0, 20 mM MgSO4, 25 °C
T1 construct: His6-tagged, expressed in E. coli BL21(DE3) pLysS, Ni-NTA purified
T1 sequence (C3KE61 1-301): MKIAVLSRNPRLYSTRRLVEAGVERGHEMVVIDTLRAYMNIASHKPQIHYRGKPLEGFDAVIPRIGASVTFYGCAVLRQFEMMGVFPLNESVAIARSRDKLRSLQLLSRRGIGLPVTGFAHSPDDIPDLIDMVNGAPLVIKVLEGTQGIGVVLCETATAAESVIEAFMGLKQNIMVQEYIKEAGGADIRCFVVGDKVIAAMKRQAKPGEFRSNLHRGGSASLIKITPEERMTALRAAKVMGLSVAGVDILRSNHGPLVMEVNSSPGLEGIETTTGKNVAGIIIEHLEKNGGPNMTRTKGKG

RimK [2] = biological target: T1, RimK; assay: PK/LDH-coupled ATPase assay; RpsF glutamation SDS-PAGE gel shift; type: biochemical; settings: activator; ATPase with 25 uM cdG, 2.5 uM RimK, pH 9.0, 20 mM MgSO4, 25 °C
[3] = biological target: SBW25 RimK (Pseudomonas fluorescens SBW25) (UniProt C3KE61)
RimK [4] = biological target: T1, RimK; assay: RpsF glutamation assay, SDS-PAGE and mass spectrometry; type: biochemical; settings: acceptor RpsF10glu (SBW25); 20 mM ATP, 20 mM MgSO4, pH 9.0, room temperature

Compound: Nc1ncnc2c1ncn2[C@@H]1O[C@H](COP(=O)(O)OP(=O)(O)OP(=O)(O)O)[C@@H](O)[C@H]1O [ATP]
PK/LDH-coupled ATPase assay (NADH oxidation) (RimK [1]): plotting the specific activity of the enzyme (nmol ATP hydrolyzed/min/mg protein) versus ATP concentration

Compound: Nc1nc2c(ncn2[C@@H]2O[C@@H]3COP(=O)(O)O[C@H]4[C@@H](O)[C@H](n5cnc6c(=O)[nH]c(N)nc65)O[C@@H]4COP(=O)(O)O[C@H]3[C@H]2O)c(=O)[nH]1 [cdG, cyclic-di-GMP]
PK/LDH-coupled ATPase assay; RpsF glutamation SDS-PAGE gel shift (RimK [2]): cdG was shown to stimulate both ATPase activity (Fig 2A) and RpsF modification (Fig 2B)

Kd fitted to the RimK ATPase activity data of Fig 2E with the four-state kinetic model (RimK, RimK.RimA, RimK.cdG, RimK.cdG.RimA) [3]: 200 nM
Kd fitted to the RimK ATPase activity data of Fig 2E with the two-state kinetic model (RimK, RimK*), which the paper calls unlikely [3]: 83.2 nM
Compound: SBW25 RimA (enzyme)

Compound: N[C@@H](CCC(=O)O)C(=O)O [L-glutamate]
RpsF glutamation assay, SDS-PAGE and mass spectrometry (RimK [4]): addition of RimK resulted in unregulated modification of RpsF10glu in a glutamate-dependent manner
